Reference: patent US8658666B2, “Substituted imidazoquinolines and imidazonaphthyridines” (3M Innovative Properties Company, priority 2005, dated 2014)
Counter-ions that a name gives are not always drawn.

| melting point [°C] | SMILES |
| --- | --- |
| 223 to 225 | CC(C)(O)Cn1c(CO)nc2c(N)nc3cc(CCC(=O)N4CCOCC4)ccc3c21 [Example 112, 1-[4-Amino-2-(hydroxymethyl)-7-(3-morpholin-4-yl-3-oxopropyl)-1H-imidazo[4,5-c]quinolin-1-yl]-2-methylpropan-2-ol] |
| 125 to 126 | COc1cccc(CNCc2ccc3nc(N)c4ncn(CC(C)C)c4c3c2)c1 [Example 127, 1-Isobutyl-8-{[(3-methoxybenzyl)amino]methyl}-1H-imidazo[4,5-c]quinolin-4-amine] |
| 220 to 221 | CCOCc1nc2c(N)nc3cc(/C=C/Sc4ccccc4)ccc3c2n1CCCOC(C)C (as salt: hydrobromid) [Example 1, 2-Ethoxymethyl-1-(3-isopropoxypropyl)-7-[(E)-2-(phenylthio)ethenyl]-1H-imidazo[4,5-c]quinolin-4-amine] |
| 210 to 212 | COCc1nc2c(N)nc3cc(CCS(C)(=O)=O)ccc3c2n1CC(C)(C)O [Example 104, 1-{4-Amino-2-(methoxymethyl)-7-[2-(methylsulfonyl)ethyl]-1H-imidazo[4,5-c]quinolin-1-yl}-2-methylpropan-2-ol] |
| 259 to 261 | CCOCc1nc2c(N)nc3ccc(NC(=O)C(C)C)cc3c2n1CC(C)(C)O [Example 117, N-[4-Amino-2-(ethoxymethyl)-1-(2-hydroxy-2-methylpropyl)-1H-imidazo[4,5-c]quinolin-8-yl]-2-methylpropanamide] |
| 193 to 194 | CCCCc1nc2c(N)nc3cc(/C=C/C(=O)OC)ccc3c2n1CC(C)C [Example 8, Methyl(2E)-3-[4-amino-2-butyl-1-(2-methylpropyl)-1H-imidazo[4,5-c]quinolin-7-yl]prop-2-enoate] |
| 190 to 192 | COCc1nc2c(N)nc3cc(CCC(=O)N4CCS(=O)(=O)CC4)ccc3c2n1CC(C)(C)O [Example 107, 1-[4-Amino-7-[3-(1,1-dioxidothiomorpholin-4-yl)-3-oxopropyl]-2-(methoxymethyl)-1H-imidazo[4,5-c]quinolin-1-yl]-2-methylpropan-2-ol] |
| 172 to 173 | CCOC(=O)CCc1ccc2c(c1)nc(N)c1nc(CC)n(CC3CCOCC3)c12 [Example 132, Ethyl 3-[4-amino-2-ethyl-1-(tetrahydro-2H-pyran-4-ylmethyl)-1H-imidazo[4,5-c]quinolin-7-yl]propanoate] |
| 122 to 124 | CCOCc1nc2c(N)nc3cc(CCCCNC(C)=O)ccc3c2n1CCCOC(C)C [Example 5, N-{4-[4-Amino-2-ethoxymethyl-1-(3-isopropxypropyl)-1H-imidazo[4,5-c]quinolin-7-yl]butyl}acetamide] |
| 118 to 119 | CCOCc1nc2c(N)nc3cc(CCC(=O)N4CCOCC4)ccc3c2n1CC(C)(C)O [Example 14, 1-[4-Amino-2-(ethoxymethyl)-7-(3-morpholin-4-yl-3-oxopropyl)-1H-imidazo[4,5-c]quinolin-1-yl]-2-methylpropan-2-ol] |
| > 250 | COC(=O)/C=C/c1ccc2c(c1)nc(N)c1ncn(CC(C)(C)O)c12 [Example 15, Methyl(2E)-3-[4-amino-1-(2-hydroxy-2-methylpropyl)-1H-imidazo[4,5-c]quinolin-7-yl]prop-2-enoate] |
| 215 to 217 | COCc1nc2c(N)nc3cc(CCC(=O)N4CCOCC4)ccc3c2n1CC(C)(C)O [Example 106, 1-[4-Amino-2-(methoxymethyl)-7-(3-morpholin-4-yl-3-oxopropyl)-IH-imidazo[4,5-c]quinolin-1-yl]-2-methylpropan-2-ol] |
| 203 to 205 | CCOCc1nc2c(N)nc3cc(C=O)ccc3c2n1CC(C)(C)O [Example 133, 4-Amino-2-(ethoxymethyl)-1-(2-hydroxy-2-methylpropyl)-1H-imidazo[4,5-c]quinoline-7-carbaldehyde] |
| 142 to 145 | COCc1nc2c(N)nc3cc(CCC(=O)N(C)C)ccc3c2n1CC(C)(C)O [Example 108, 3-[4-Amino-1-(2-hydroxy-2-methylpropyl)-2-(methoxymethyl)-1H-imidazo[4,5-c]quinolin-7-yl]-N,N-dimethylpropanamide] |
| 168 to 170 | CCc1nc2c(N)nc3cc(CCCNS(C)(=O)=O)ccc3c2n1CC1CCOCC1 [Example 124, N-{3-[4-Amino-2-ethyl-1-(tetrahydro-2H-pyran-4-ylmethyl)-1H-imidazo[4,5-c]quinolin-7-yl]propyl}methanesulfonamide] |
| 184 to 186 | COCCc1nc2c(N)nc3ccc(CCC(=O)N(C)C)cc3c2n1CCCN1CCCC1=O [Example 102, 3-{4-Amino-2-(2-methoxyethyl)-1-[3-(2-oxo-pyrrolidin-1-yl)propyl]-1H-imidazo[4,5-c]quinolin-8-yl}-N,N-dimethylpropanamide] |
| 214 to 215 | CCOCc1nc2c(N)nc3cc(NC(=O)C(C)C)ccc3c2n1CCCOC(C)C [Example 3, N-[4-Amino-2-ethoxymethyl-1-(3-isopropoxypropyl)-1H-imidazo[4,5-c]quinolin-7-yl]-2-methylpropanamide] |
| > 260 | CCc1nc2c(N)nc3cc(/C=C/C(=O)N(C)C)ccc3c2n1CC1CCOCC1 [Example 128, (2E)-3-[4-Amino-2-ethyl-1-(tetrahydro-2H-pyran-4-ylmethyl)-1H-imidazo[4,5-c]quinolin-7-yl]-N,N-dimethylprop-2-enamide] |
| 214 to 216 | CC(C)Cn1cnc2c(N)nc3ccc(CCO)cc3c21 [Example 96, 2-(4-Amino-1-isobutyl-1H-imidazo[4,5-c]quinolin-8-yl)ethanol] |
| 202 to 205 | CC(C)(O)Cn1c(CO)nc2c(N)nc3cc(CCCNS(C)(=O)=O)ccc3c21 [Example 116, N-{3-[4-Amino-2-(hydroxymethyl)-1-(2-hydroxy-2-methylpropyl)-1H-imidazo[4,5-c]quinolin-7-yl]propyl}methanesulfonamide] |
| 174 to 175 | CC(C)Cn1cnc2c(N)nc3ccc(CCCN4CCCC4=O)cc3c21 [Example 10, 1-{3-[4-Amino-1-(2-methylpropyl)-1H-imidazo[4,5-c]quinolin-8-yl]propyl}pyrrolidin-2-one] |
| 213 to 216 | CCc1nc2c(N)nc3cc(CCCNC(=O)NC(C)C)ccc3c2n1CC1CCOCC1 [Example 126, N-{3-[4-amino-2-ethyl-1-(tetrahydro-2H-pyran-4-ylmethyl)-1H-imidazo[4,5-c]quinolin-7-yl]propyl}-N′-isopropylurea] |
| 177 to 178 | CCOCc1nc2c(N)nc3cc(CCCO)ccc3c2n1CC(C)(C)O [Example 134, 3-[4-Amino-2-(ethoxymethyl)-1-(2-hydroxy-2-methylpropyl)-1H-imidazo[4,5-c]quinolin-7-yl]propan-1-ol] |
| 124 to 127 | CCOCc1nc2c(N)nc3cc(NS(=O)(=O)CC)ccc3c2n1CC(C)(C)O [Example 4, N-[4-Amino-2-ethoxymethyl-1-(2-hydroxy-2-methylpropyl)-1H-imidazo[4,5-c]quinolin-7-yl]ethanesulfonamide] |
| 273 to 275 | CCc1nc2c(N)nc3cc(CCC#N)ccc3c2n1CC1CCOCC1 [Example 121, 3-[4-Amino-2-ethyl-1-(tetrahydro-2H-pyran-4-ylmethyl)-1H-imidazo[4,5-c]quinolin-7-yl]propanenitrile] |
